According to patent US7253146B2, “Template-fixed peptidomimetics with antimicrobial activity” (Polyphor Ltd, priority 2001, dated 2007):
≈ marks a conversion by molar mass, not a printed value. Where a SMILES comes first, the peptide text is derived from it. [ ]: non-standard residue; d: D form. The star is where a group is joined. Cha = N[C@@H](CC1CCCCC1)C(=O)O; Nle = CCCC[C@H](N)C(=O)O; Orn = NCCC[C@H](N)C(=O)O; Bn = c1ccc(C*)cc1

Assays:
[1] = tested on: Candida albicans
Experimental: (§1) Lyophilized peptides were weighed on a Microbalance (Mettler MT5) and dissolved in sterile water containing 0.01% acetic acid Tachyplesin was purchased from Bachem Ltd. (Bubendorf Switzerland).
(§2) The antimicrobial activities of the peptides were determined by the standard NCCLS broth microdilution method (see ref 1, below) examined in sterile 96-wells plates (Nunclon polystyrene microtiter plates) in a total volume of 100 μl. […] 10^6 colony forming units (CFU)/ml for bacteria or 5×10^3 CFU/ml for Candida. Aliquots (50 μl) of the innocula were added to 50 μl of MH broth containing the peptide in serial twofold dilutions. The microorganisms used were Escherichia coli (ATCC 25922), Pseudomnonas aeruginosa (P. aeruginosa) (ATCC 27853), Stahylococcus aureus (ATCC 29213 and ATCC 25923) and Candida albicans. A selected number of peptides were screened for activity against a larger panel of gram-negative strains. These strains were; Escherichia coli ATCC 43827 and clinical isolates of Pseudomonas (P. aeruginosa V07 14482, P. aeruginosa 15288, P. aeruginosa V02 15328 and P. aeruginosa V09 16085) and Acinetobacter (Acinetobacter V04 19905/1, Acinetobacter V12 21143/1 and Acinetobacter V12 21193/1).

[2] = tested on: Escherichia coli (ATCC 25922); conditions: ATCC 25922
Experimental: as §1, §2

[3] = tested on: Staphylococcus aureus ATCC 25923; conditions: ATCC 25923
Experimental: as §1, §2

[4] = tested on: Staphylococcus aureus ATCC 29213; conditions: ATCC 29213
Experimental: as §1, §2

SMILES	MIC Candida albicans [1]	MIC Escherichia coli ATCC 25922 [2]	MIC Staphylococcus aureus ATCC 25923 [3]	MIC Staphylococcus aureus ATCC 29213 [4]
CC[C@H](C)[C@@H]1NC(=O)[C@H](CCCCN)NC(=O)[C@H](Cc2c[nH]c3ccccc23)NC(=O)[C@H](CCCNC(=N)N)NC(=O)[C@H](CCCNC(=N)N)NC(=O)[C@H](CCCCN)NC(=O)[C@H](CCCCN)NC(=O)[C@H](CC(C)C)NC(=O)[C@H](CCCNC(=N)N)NC(=O)[C@H](CC(C)C)NC(=O)[C@@H]2CCCN2C(=O)[C@H]2CCCN2C(=O)[C@H](C(C)C)NC(=O)[C@H](CCCNC(=N)N)NC1=O [Example 152] (cyclo(LRLKKRRWKIRV[dP]P))	12.5 µg/mL (≈ 6.84 µM)	25 µg/mL (≈ 13.7 µM)	25 µg/mL (≈ 13.7 µM)	50 µg/mL (≈ 27.3 µM)
CC(C)C[C@@H]1NC(=O)[C@H](CCCNC(=N)N)NC(=O)[C@H](CCCNC(=N)N)NC(=O)[C@H](CCCNC(=N)N)NC(=O)[C@H](Cc2ccc(O)cc2)NC(=O)[C@H](Cc2ccc(O)cc2)NC(=O)[C@H](CCCNC(=N)N)NC(=O)[C@@H]2CCCN2C(=O)[C@H]2CCCN2C(=O)[C@H](CCCNC(=N)N)NC(=O)[C@H](Cc2ccc(O)cc2)NC1=O [Example 11] (cyclo(RYYRRRLYR[dP]P))	100 µg/mL (≈ 63.4 µM)	25 µg/mL (≈ 15.8 µM)	100 µg/mL (≈ 63.4 µM)	100 µg/mL (≈ 63.4 µM)
CC(C)C[C@@H]1NC(=O)[C@H](CCCNC(=N)N)NC(=O)[C@H](CCCNC(=N)N)NC(=O)[C@H](CCCNC(=N)N)NC(=O)[C@H](Cc2ccccc2)NC(=O)[C@H](Cc2ccccc2)NC(=O)[C@H](CC(C)C)NC(=O)[C@H](CC(C)C)NC(=O)[C@@H]2CCCN2C(=O)[C@H]2CCCN2C(=O)[C@H](CCCNC(=N)N)NC(=O)[C@H](Cc2ccccc2)NC1=O [Example 40] (cyclo(LLFFRRRLFR[dP]P))	25 µg/mL (≈ 15.6 µM)	25 µg/mL (≈ 15.6 µM)	50 µg/mL (≈ 31.2 µM)	25 µg/mL (≈ 15.6 µM)
CC(C)C[C@@H]1NC(=O)[C@H](CCCNC(=N)N)NC(=O)[C@H](CC(C)C)NC(=O)[C@@H]2CCCN2C(=O)[C@H]2CCCN2C(=O)[C@H](C(C)C)NC(=O)[C@H](CCCNC(=N)N)NC(=O)[C@H](Cc2ccc(O)cc2)NC(=O)[C@H](CCCN)NC(=O)[C@H](Cc2c[nH]c3ccccc23)NC(=O)[C@H](CCCNC(=N)N)NC(=O)[C@H](CCCNC(=N)N)NC(=O)[C@H](CCCCN)NC(=O)[C@H](CCCCN)NC1=O [Example 217] (cyclo(LRLKKRRW[Orn]YRV[dP]P))	12.5 µg/mL (≈ 6.7 µM)	18.8 µg/mL (≈ 10.1 µM)	25 µg/mL (≈ 13.4 µM)	12.5 µg/mL (≈ 6.7 µM)
CC(C)C[C@@H]1NC(=O)[C@H](Cc2ccc(O)cc2)NC(=O)[C@H](CCCNC(=N)N)NC(=O)[C@H](CCCNC(=N)N)NC(=O)[C@H](CCCNC(=N)N)NC(=O)[C@H](Cc2ccc(O)cc2)NC(=O)[C@H](CC(C)C)NC(=O)[C@H](CC(C)C)NC(=O)[C@H](Cc2ccc(O)cc2)NC(=O)[C@H](CCCNC(=N)N)NC(=O)[C@@H]2CCCN2C(=O)[C@H]2CCCN2C(=O)[C@H](CCCNC(=N)N)NC(=O)[C@H](CCCNC(=N)N)NC(=O)[C@H](Cc2ccc(O)cc2)NC(=O)[C@H](CC(C)C)NC1=O [Example 71] (cyclo(RYLLYRRRYLLYRR[dP]P))	50 µg/mL (≈ 22.4 µM)	12.5 µg/mL (≈ 5.59 µM)	12.5 µg/mL (≈ 5.59 µM)	12.5 µg/mL (≈ 5.59 µM)
CC(C)C[C@@H]1NC(=O)[C@H](Cc2ccccc2)NC(=O)[C@H](CC(C)C)NC(=O)[C@H](CCCNC(=N)N)NC(=O)[C@@H]2CCCN2C(=O)[C@H]2CCCN2C(=O)[C@H](CC(C)C)NC(=O)[C@H](CCCNC(=N)N)NC(=O)[C@H](Cc2ccccc2)NC(=O)[C@H](Cc2ccccc2)NC(=O)[C@H](CCCNC(=N)N)NC(=O)[C@H](CCCNC(=N)N)NC(=O)[C@H](CCCNC(=N)N)NC1=O [Example 59] (cyclo(RLFLRRRFFRL[dP]P))	25 µg/mL (≈ 14.2 µM)	4.7 µg/mL (≈ 2.68 µM)	50 µg/mL (≈ 28.5 µM)	25 µg/mL (≈ 14.2 µM)
CC(C)C[C@@H]1NC(=O)[C@H](CCCNC(=N)N)NC(=O)[C@H](CC(C)C)NC(=O)[C@@H]2CCCN2C(=O)[C@H]2CCCN2C(=O)[C@H](C(C)C)NC(=O)[C@H](CCCNC(=N)N)NC(=O)[C@H](Cc2ccc(O)cc2)NC(=O)[C@H](CCCCN)NC(=O)[C@H](Cc2ccccc2)NC(=O)[C@H](CCCNC(=N)N)NC(=O)[C@H](CCCNC(=N)N)NC(=O)[C@H](Cc2ccc(O)cc2)NC(=O)[C@H](CCCCN)NC1=O [Example 103] (cyclo(LRLKYRRFKYRV[dP]P))	12.5 µg/mL (≈ 6.67 µM)	9.4 µg/mL (≈ 5.02 µM)	25 µg/mL (≈ 13.3 µM)	25 µg/mL (≈ 13.3 µM)
CC(C)C[C@@H]1NC(=O)[C@H](CCCNC(=N)N)NC(=O)[C@H](CC(C)C)NC(=O)[C@@H]2CCCN2C(=O)[C@H]2CCCN2C(=O)[C@H](C(C)C)NC(=O)[C@H](CCCNC(=N)N)NC(=O)[C@H]([C@@H](C)OCc2ccccc2)NC(=O)[C@H](CCCCN)NC(=O)[C@H](Cc2c[nH]c3ccccc23)NC(=O)[C@H](CCCNC(=N)N)NC(=O)[C@H](CCCNC(=N)N)NC(=O)[C@H](CCCCN)NC(=O)[C@H](CCCCN)NC1=O [Example 206] (cyclo(LRLKKRRWKT(Bn)RV[dP]P))	6.2 µg/mL (≈ 3.25 µM)	6.2 µg/mL (≈ 3.25 µM)	12.5 µg/mL (≈ 6.56 µM)	12.5 µg/mL (≈ 6.56 µM)
CC(C)C[C@@H]1NC(=O)[C@H](CCCNC(=N)N)NC(=O)[C@H](CC2CCCCC2)NC(=O)[C@@H]2CCCN2C(=O)[C@H]2CCCN2C(=O)[C@H](C(C)C)NC(=O)[C@H](CCCNC(=N)N)NC(=O)[C@H](Cc2ccc(O)cc2)NC(=O)[C@H](CCCCN)NC(=O)[C@H](Cc2c[nH]c3ccccc23)NC(=O)[C@H](CCCNC(=N)N)NC(=O)[C@H](CCCNC(=N)N)NC(=O)[C@H](CCCCN)NC(=O)[C@H](CCCCN)NC1=O [Example 121] (cyclo([Cha]RLKKRRWKYRV[dP]P))	6.2 µg/mL (≈ 3.23 µM)	25 µg/mL (≈ 13 µM)	6.2 µg/mL (≈ 3.23 µM)	6.2 µg/mL (≈ 3.23 µM)
CC(C)C[C@@H]1NC(=O)[C@H](CCCNC(=N)N)NC(=O)[C@H](CCCCN)NC(=O)[C@@H]2CCCN2C(=O)[C@H]2CCCN2C(=O)[C@H](CCCNC(=N)N)NC(=O)[C@H](CC(C)C)NC(=O)[C@H](C(C)C)NC(=O)[C@H](CCCCN)NC(=O)[C@H](C(C)C)NC(=O)[C@H](Cc2ccc(O)cc2)NC(=O)[C@H](Cc2c[nH]c3ccccc23)NC(=O)[C@H](CCCNC(=N)N)NC(=O)[C@H](CCCNC(=N)N)NC(=O)[C@H](CCCNC(=N)N)NC(=O)[C@H](Cc2c[nH]c3ccccc23)NC(=O)[C@H](Cc2ccc(O)cc2)NC(=O)[C@H](CCCCN)NC1=O [Example 87] (cyclo(KRLKYWRRRWYVKVLR[dP]P))	12.5 µg/mL (≈ 5.03 µM)	6.2 µg/mL (≈ 2.5 µM)	9.4 µg/mL (≈ 3.79 µM)	9.4 µg/mL (≈ 3.79 µM)
CC(C)C[C@@H]1NC(=O)[C@H](CCCNC(=N)N)NC(=O)[C@H](CC(C)C)NC(=O)[C@H](CC2CCCCC2)NC(=O)[C@H]2CCCN2C(=O)[C@H](C(C)C)NC(=O)[C@H](CCCNC(=N)N)NC(=O)[C@H](Cc2ccc(O)cc2)NC(=O)[C@H](CCCCN)NC(=O)[C@H](Cc2c[nH]c3ccccc23)NC(=O)[C@H](CCCNC(=N)N)NC(=O)[C@H](CCCNC(=N)N)NC(=O)[C@H](CCCCN)NC(=O)[C@H](CCCCN)NC1=O [Example 254] (cyclo([Cha]LRLKKRRWKYRV[dP]))	12.5 µg/mL (≈ 6.46 µM)	12.5 µg/mL (≈ 6.46 µM)	12.5 µg/mL (≈ 6.46 µM)	6.2 µg/mL (≈ 3.21 µM)
CCCC[C@@H]1NC(=O)[C@H](CCCCN)NC(=O)[C@H](Cc2c[nH]c3ccccc23)NC(=O)[C@H](CCCNC(=N)N)NC(=O)[C@H](CCCNC(=N)N)NC(=O)[C@H](CCCCN)NC(=O)[C@H](CCCCN)NC(=O)[C@H](CC(C)C)NC(=O)[C@H](CCCNC(=N)N)NC(=O)[C@H](CC(C)C)NC(=O)[C@@H]2CCCN2C(=O)[C@H]2CCCN2C(=O)[C@H](C(C)C)NC(=O)[C@H](CCCNC(=N)N)NC1=O [Example 154] (cyclo(LRLKKRRWK[Nle]RV[dP]P))	12.5 µg/mL (≈ 6.84 µM)	12.5 µg/mL (≈ 6.84 µM)	12.5 µg/mL (≈ 6.84 µM)	25 µg/mL (≈ 13.7 µM)
CC(C)C[C@@H]1NC(=O)[C@H](Cc2ccccc2)NC(=O)[C@H](CC(C)C)NC(=O)[C@H](Cc2ccccc2)NC(=O)[C@@H]2CCCN2C(=O)[C@H]2CCCN2C(=O)[C@H](CCCNC(=N)N)NC(=O)[C@H](CCCNC(=N)N)NC(=O)[C@H](Cc2ccccc2)NC(=O)[C@H](CC(C)C)NC(=O)[C@H](CCCNC(=N)N)NC(=O)[C@H](CCCNC(=N)N)NC(=O)[C@H](CCCNC(=N)N)NC1=O [Example 63] (cyclo(FLFLRRRLFRR[dP]P))	12.5 µg/mL (≈ 7.12 µM)	6.2 µg/mL (≈ 3.53 µM)	25 µg/mL (≈ 14.2 µM)	12.5 µg/mL (≈ 7.12 µM)
